{"source": "patent US12491202B2", "about": "“Phospholipid ether analogs for imaging and targeted treatment of pediatric solid tumors” (Wisconsin Alumni Research Foundation, priority 2016, dated 2025)", "key": {"[1]": {"tested_on": "pediatric solid tumor cells", "assay": "CLR1501 uptake by flow cytometry in pediatric solid tumor cell lines", "format": "cell-based, human", "settings": "5 μM, 16-19 hours incubation, 4 hours wash; Rd, Rh-41, TC-71, TC-106, SK-N-AS, NB-1691, SAOS-2, SJ-GBM2 p<0.01; CHLA-20, Rh-30 p≤0.02", "from_the_text": "(§1) FIG. 4 is a bar graph illustrating the preferential uptake of CLR1501, a fluorescent derivative of CLR1404, by pediatric solid cancer cells (rhabdomyosarcoma Rd, Rh-41; Ewing's sarcoma TC-71, TC-106; neuroblastoma SK-N-AS, NB1691; osteosarcoma SAOS-2; glioblastoma SJ-GBM2), and for reference, the adult cancer cell lines PC3 and MT-330, compared to normal human fibroblasts (HUFI), by flow cytometry. Mean±standard error (SE) from minimum 3 experiments per cell line, *P≤0.01. MFI, mean fluorescence intensity; RMS, rhabdomyosarcoma; EWS, Ewing's sarcoma; NB, neuroblastoma; OS, osteosarcoma; GB, glioblastoma, PC, prostate adenocarcinoma. Cells were plated at 5×10^5 cells/ml in triplicates in media containing 5 μM CLR1501 (fluorescent CLR1404). Mean fluorescence intensity corrected for auto-fluorescence was averaged from three experiments±standard deviation.\n(§2) Each cell line (5×10^5 cells/ml) was incubated for 16-19 hours with 5 μM CLR1501, then washed with 10% FBS medium for 4 hours. Cells were then measured by flow cytometry (FACSCalibur, BD Biosciences) and analyzed using FlowJo 8.2 (Tree Star, Ashland, Oreg.). Mean fluorescence intensity (MFI) per cell was corrected for autofluorescence (FL1 index) and averaged from three experiments±standard deviation."}, "[2]": {"tested_on": "normal human pediatric fibroblast (HUFI) cells", "assay": "CLR1501 uptake by flow cytometry in normal fibroblasts", "format": "cell-based", "settings": "5 μM, 16-19 hours incubation; compared with pediatric tumor cell lines", "from_the_text": "as §1, §2"}, "[3]": {"tested_on": "xenografted pediatric solid tumor tissue (Rh30, TC-71, CHLA-20, NB-1691)", "assay": "In vivo uptake of 124I-CLR1404 by PET/CT in xenografted mice", "set-up": "species or system mouse", "settings": "NSG mice, 8-13 μCi/g via tail vein injection", "protocol": "Specifically, […] with one of four different pediatric tumor cell lines (CHLA-20 (neuroblastoma), NB-1691 (neuroblastoma), TC-71 (Ewing sarcoma), and Rh-30 (rhabdomyosarcoma). For each of the sixteen xenografted mice, 100 μl cell suspension containing 3×10^6 tumor cells (>95% viability, passage 5-25) was inoculated into subcutaneous tissue of the left flank of a 6-8 week-old NSG mouse (NOD.Cg-Prdc^scidII2rg^tm1Wj1/SzJ, Jackson Laboratory, Bar Harbor, Me.). Once xenograft tumors measured a minimum of about 7×7 mm, the mice received ^124I-CLR1404 at 8-13 μCi/g via tail vein injection. After an uptake period, PET/CT imaging was performed on the mice at 5 and 6 time-points. Following image acquisition, the images were reconstructed, co-registered, resampled, rescaled, and corrected for partial volume effects (PVE), and masked."}, "[4]": {"tested_on": "NB-1691 neuroblastoma xenograft", "assay": "Tumor growth rate, linear mixed effects model, NB-1691 xenograft", "format": "in vivo, mouse", "settings": "3.5 μCi/g, excipient slope 0.15, P <0.0001", "protocol": "(§3) Rh30, TC-71, TC-106, CHLA-20, NB-1691, and SAOS-2 subcutaneous flank xenografts were induced in mice, as described in Example 2 above. Tumors were measured twice weekly with calipers, and the tumor volume was calculated. When tumors reached a volume of approximately 50 mm^3, mice were randomly assigned to receive either ^131I-CLR1404 in doses of 3.5 μCi/g or an excipient (equimolar ^127I-CLR1404), and measurement of tumor size continued. Survival rates as a function of time were also observed in the xenografted mice.\n(§4) A linear mixed effects analysis of predicted growth rate was performed using the tumor size data described above. The results are shown in Table 1 below, and in graphical form in FIG. 10."}, "[5]": {"tested_on": "Rh30 rhabdomyosarcoma xenograft", "assay": "Tumor growth rate, linear mixed effects model, Rh30 xenograft", "format": "in vivo, mouse", "settings": "3.5 μCi/g, excipient slope 0.18, P <0.0001", "protocol": "as §3, §4"}, "[6]": {"tested_on": "CHLA-20 neuroblastoma xenograft", "assay": "Tumor growth rate, linear mixed effects model, CHLA-20 xenograft", "format": "in vivo, mouse", "settings": "3.5 μCi/g, excipient slope 0.13, P 0.0124", "protocol": "as §3, §4"}, "[7]": {"tested_on": "TC-71 Ewing's sarcoma xenograft", "assay": "Tumor growth rate, linear mixed effects model, TC-71 xenograft", "format": "in vivo, mouse", "settings": "3.5 μCi/g, excipient slope 0.14, P <0.0003", "protocol": "as §3, §4"}, "[8]": {"tested_on": "SAOS-2 osteosarcoma xenograft", "assay": "Tumor growth rate, linear mixed effects model, SAOS-2 xenograft", "format": "in vivo, mouse", "settings": "3.5 μCi/g, excipient slope 0.11, P <0.0001", "protocol": "as §3, §4"}, "[9]": {"tested_on": "TC-106 Ewing's sarcoma xenograft", "assay": "Tumor growth rate, linear mixed effects model, TC-106 xenograft", "format": "in vivo, mouse", "settings": "3.5 μCi/g, excipient slope 0.26, P <0.0001", "protocol": "as §3, §4"}, "[10]": {"tested_on": "pediatric solid cancer xenografts", "assay": "Tumor volume, survival and toxicity in pediatric solid cancer xenograft NSG models", "format": "in vivo, mouse", "settings": "3.5 μCi/g", "protocol": "as §3"}}, "data": [{"compound": "C[N+](C)(C)CCOP(=O)([O-])OCCCCCCCCCCCCCCCCCCc1ccc(C2=C3C=CC=[N+]3[B-](F)(F)n3cccc32)cc1", "note": "[CLR1501]", "values": [{"measurement": "CLR1501 uptake (mean fluorescence intensity) versus normal pediatric fibroblast (HUFI) cells", "setting": "[1]", "value": "significantly higher"}, {"measurement": "CLR1501 uptake in normal cells", "setting": "[2]", "value": "much less uptake"}]}, {"compound": "C[N+](C)(C)CCOP(=O)([O-])OCCCCCCCCCCCCCCCCCCc1ccc([124I])cc1", "note": "[^124I-CLR1404]", "values": [{"measurement": "Uptake into xenografted tumor tissue (PET/CT)", "setting": "[3]", "value": "differential uptake"}]}, {"compound": "C[N+](C)(C)CCOP(=O)([O-])OCCCCCCCCCCCCCCCCCCc1ccc([131I])cc1", "note": "[^131I-CLR1404]", "values": [{"measurement": "Slope log volume (prediction of the tumor growth rate)", "setting": "[4]", "value": 0.09}, {"measurement": "Slope log volume (prediction of the tumor growth rate)", "setting": "[5]", "value": 0.06}, {"measurement": "Slope log volume (prediction of the tumor growth rate)", "setting": "[6]", "value": 0.09}, {"measurement": "Slope log volume (prediction of the tumor growth rate)", "setting": "[7]", "value": 0.08}, {"measurement": "Slope log volume (prediction of the tumor growth rate)", "setting": "[8]", "value": 0.08}, {"measurement": "Slope log volume (prediction of the tumor growth rate)", "setting": "[9]", "value": 0.10}, {"measurement": "Toxicity", "setting": "[10]; xenografted mice", "value": "low toxicity"}, {"measurement": "Mean tumor volumes versus excipient", "setting": "[10]; Rh30, TC-71, CHLA-20 and NB-1691 xenografts", "value": "decreased mean tumor volumes"}, {"measurement": "Animal survival versus excipient", "setting": "[10]; four groups, statistically significant in Ewing's sarcoma and rhabdomyosarcoma xenografts", "value": "extended animal survival"}]}]}
